# Test results taken from patent publication US8841292B2, “Induced hypothermia” (Weil Institute of Critical Care Medicine, priority 2011, dated 2014).
# How the values were obtained:
# [1] = test system: porcine model of CPR; assay: Proposed porcine model study of cardiac arrest and resuscitation; assay type: in vivo, Sus scrofa; details: hypothesis
# Source text: A porcine model of cardiac arrest and resuscitation in domestic pigs, weighing between 40±2 kg, is utilized for a proposed study that applicant is conducting. The porcine model is selected because (1) it has a large body mass and the timing of reduction in body temperature during hypothermia is close to that of the human. […] (3) A large animal model facilitates non-invasive measurements of myocardial function by echocardiographic methods, preserving an intact chest wall for conventional CPR, and specifically, precordial compression. (4) Our research team has had extensive experience for more than 20 years with the porcine model, under conditions of cardiac arrest and resuscitation.
# Our aims are to investigate the effects of WIN55, 212-2, the cannabinoid CB1/CB2 receptor agonist, when administered immediately following resuscitation with or without physical surface body cooling on blood temperature, post resuscitation myocardial and cerebral functions, and duration of survival in our porcine model of CPR. We hypothesize that when WIN55, 212-2 is administered immediately following resuscitation, it will rapidly achieve the target blood temperature (34° C., <3 hours), therefore improving post-resuscitation myocardial and cerebral functions, and duration of survival. We further hypothesize that when WIN55, 212-2 is administered in combination with physical surface body cooling, the combination will further reduce the duration for achieving target blood temperature (<1 hour). It will therefore further improve post-resuscitation myocardial and cerebral functions, and duration of survival.
# To test our hypotheses, the independent variables are the WIN55, 212-2 and WIN55, 212-2 with physical surface cooling. […]
# In experiments, male domestic pigs, weighing 40±2 kg, are fasted overnight except for free access to water. […] End-tidal PC02 is monitored with an infrared analyzer (Model 01R-7101A, Nihon Kohden Corp, Tokyo, Japan). […]
# [2] = test system: normal rats; details: cited from earlier work
# [3] = test system: cannabinoid receptors; details: versus other neurotransmitter and ion channels; cited from earlier work
# [4] = test system: rat model of cardiac arrest and resuscitation; assay: Rat model of cardiac arrest and resuscitation; assay type: in vivo
# Description: The effects of WIN 55, 212-2 were investigated initially in our rat model of cardiac arrest and resuscitation. […] Ventricular fibrillation was induced and untreated for 6 mins and followed by 8 mins of CPR. Resuscitation was then attempted with defibrillation. WIN 55, 212-2 was infused intravenously 10 mins after resuscitation in a dose of 1 mg/kg/hour and continued for 6 hours. The body temperature decreased from 37 to 34° C. within 4 hours after infusion (FIG. 1).
SMILES,"blockade of the effects of WIN55, 212-2 ([1]; pre-treatment with selective CB1 antagonist)","time to achieve target blood temperature (34° C.) ([1]; administered immediately following resuscitation, drug alone) [h]",time to achieve target blood temperature ([1]; in combination with physical surface body cooling) [h],"body temperature reduced to ([2]; intramuscular injection, from 37 ° C.) [°C]",duration hypothermia was maintained ([2]; intramuscular injection),"hypothermia, dose dependence ([2]; intramuscular injection)",hypothermia effect with selective CB1 antagonist ([2]; selective CB1 antagonist given),selectivity for cannabinoid receptors [3],time after infusion for body temperature decrease to 34 ° C. ([4]; 1 mg/kg/hour i.v. infusion for 6 hours) [h],"body temperature decreased to ([4]; 1 mg/kg/hour i.v. infusion from 10 mins after resuscitation for 6 hours, from 37 ° C.) [°C]",survival ([4]; all animals that received the drug),neurological deficits ([4]; survivors),"post resuscitation myocardial function (ejection fraction, FIG. 2) ([4]; versus controls)"
Cc1c(C(=O)NN2CCCCC2)nn(-c2ccc(Cl)cc2Cl)c1-c1ccc(Cl)cc1 [SR141716A],completely blocked,,,,,,,,,,,,
"Cc1c(C(=O)c2cccc3ccccc23)c2cccc3c2n1[C@H](CN1CCOCC1)CO3 [WIN 55, 212-2]",,< 3,< 1,34,up to 5 hours,produced hypothermia in a dose-dependent manner,completely blocked,highly selective,≤ 4,34,more than 72 hours,minimal neurological deficits,significantly better than the controls
